Source: paper PMC4558140, “Irreversible dual inhibitory mode: the novel Btk inhibitor PLS-123 demonstrates promising anti-tumor activity in human B-cell lymphoma” (Oncotarget, 2015)

Molecular target: Btk (Homo sapiens, UniProt Q06187)
Experiment: crystal structure of human Btk in complex with PLS-123 (Figure 1B); IC50 also stated; Western blot of p-Tyr223/p-Tyr551 Btk in cells
Format: binding
Description: crystal structure of human Btk in complex with PLS-123 (Figure 1B); IC50 also stated; Western blot of p-Tyr223/p-Tyr551 Btk in cells on Btk | Crystal structure of the human Btk in complex with PLS-123.

Btk, sequence (Q06187 2-659): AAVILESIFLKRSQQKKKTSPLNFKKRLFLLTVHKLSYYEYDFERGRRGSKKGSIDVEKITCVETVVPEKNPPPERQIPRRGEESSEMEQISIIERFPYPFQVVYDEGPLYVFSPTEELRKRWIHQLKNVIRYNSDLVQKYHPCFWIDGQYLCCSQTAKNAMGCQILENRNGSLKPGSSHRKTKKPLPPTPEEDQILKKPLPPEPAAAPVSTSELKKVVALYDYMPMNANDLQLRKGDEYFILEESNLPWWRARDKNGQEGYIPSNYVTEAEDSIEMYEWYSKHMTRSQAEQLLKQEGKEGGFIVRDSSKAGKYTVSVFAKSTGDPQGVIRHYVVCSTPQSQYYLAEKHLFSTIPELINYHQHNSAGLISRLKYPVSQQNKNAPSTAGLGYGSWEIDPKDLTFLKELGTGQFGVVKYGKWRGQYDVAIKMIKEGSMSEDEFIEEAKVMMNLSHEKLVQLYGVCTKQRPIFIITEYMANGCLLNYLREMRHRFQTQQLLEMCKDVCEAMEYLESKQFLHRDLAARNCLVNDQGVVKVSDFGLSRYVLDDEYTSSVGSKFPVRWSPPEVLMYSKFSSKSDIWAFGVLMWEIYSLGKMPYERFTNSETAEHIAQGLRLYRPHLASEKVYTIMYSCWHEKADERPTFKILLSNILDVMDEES

With `C=CC(=O)NCC(=O)Nc1cccc(Nc2ncc(NC(=O)c3cc(NC(=O)c4cccc(C(F)(F)F)c4)ccc3C)cn2)c1` [PLS-123] the IC50 was < 5 nM.
